Measurements as given in patent US20020142347A1, “Biosensor” (BIOSENSOR ApS, priority 2000, published 2002).
Residue numbers refer to the chain shown, from its start.

Experiments:
native bovine ACBP = molecular target: T1, native bovine ACBP (Bos taurus, UniProt P07107); details: isothermal titration microcalorimetry, >0.1 M salt; literature; read-out: KD for binding to native bovine ACBP; cited from earlier work
T1 sequence (P07107 1-87): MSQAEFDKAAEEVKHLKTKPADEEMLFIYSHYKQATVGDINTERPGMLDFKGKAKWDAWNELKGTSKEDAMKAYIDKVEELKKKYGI

FACI53 [1] = molecular target: T2, FACI53 (Bos taurus, UniProt P07107, A54C); assay: Isothermal titration calorimetry of acyl-CoA binding to FACI53; parameters: species or system bovine
T2 construct: badan (6-bromoacetyl-2-dimethylaminonaphthalene) fluorophore on the introduced Cys-53; made in house; host or cells: E. coli BL21(DE3)pLysS, pET3a vector
T2 sequence (P07107 2-87 A54C): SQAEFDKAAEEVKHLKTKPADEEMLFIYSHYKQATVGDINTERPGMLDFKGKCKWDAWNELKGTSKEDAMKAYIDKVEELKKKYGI
Protocol: Reference is made to FIG. 2. and FIG. 3. which depict the emission spectra of FACI24 and FACI53 titrated with increasing concentrations of CoA, C4-, C8-, C12-, C16- and C20-CoA esters. The addition of ligand and measurement of emission of FACI24 and FACI53 was performed as described in example 2. The increased addition of ligand to the mutated and modified proteins caused a proportional spectral change. The normal physiological binding profile was confirmed by direct binding studies using isoelectrical focusing as predicted in FIG. 4. […] The results clearly indicate that fluorescence emission at 470 nm may provide a measure for the concentration of free unbound long-chain(>C12)-acyl-CoA ester.
Quantitative determination of binding affinities (KD) were performed by isothermal titration micro calorimetry as previously described (Faergeman et. al., 1996; Biochemistry 35, 14118-14126). Qualitative evaluation of relative binding affinities were determined by isoelectrical focusing using the Pharmacia Fast Gel system according to the prescriptions given by the manufacture. […] The fluorescence emission was measured on a SPEX FLOUROLOG (Industries Inc, Edison N.J., USA) with excitation at 400 nm and emission scan from 400 nm to 550 nm. […]

FACI53 [2] = molecular target: T2, FACI53; assay: Fluorescence emission change of FACI-53 on titration with CoA and acyl-CoA esters; assay type: binding, bovine
Protocol: (§1) Quantitative determination of binding affinities (KD) were performed by isothermal titration micro calorimetry as previously described (Faergeman et. al., 1996; Biochemistry 35, 14118-14126). Qualitative evaluation of relative binding affinities were determined by isoelectrical focusing using the Pharmacia Fast Gel system according to the prescriptions given by the manufacture. Fluorescence emission changes induced by acyl-CoA binding to badan modified protein were determined as follows: 5 μl portions of acyl-CoAs were added from stock solutions disolved in binding buffer, (10 mM Hepes, 150 mM NaCL, 1 mM NaHPO4, pH 7.4) containing 3.4 μM Badan derivatized protein to a 1 ml 3.4 μM solution of the Badan derivatized ACBP in the same buffer. The fluorescence emission was measured on a SPEX FLOUROLOG (Industries Inc, Edison N.J., USA) with excitation at 400 nm and emission scan from 400 nm to 550 nm. The concentration of acyl-CoA in the aqueous phase was determined from the fluorescence emission sensitivities at 495 and 470 nm repectively essentially by the method described by (Grynkiewickz et. al.,1985, J. Biol. Chem. 260, 3440-3450) according to which:
(§2) Fluorescence titration emission spectra from 415 nm to 550 nm (excitation at 400 nm) were performed for CoA, C4:0-, C8:0-, C12:0-, C16:0-, and C20:0-CoA with all four mutated and badan modified proteins.
Titration of FACI-53 dissolved in binding buffer with the above mentioned acyl-CoA esters produced a smooth downward shift in fluorescence emission maximum from 525 nm when no ligand was present to 508, 503, 490, 492, 496 and 514 with increasing concentrations of CoA, C4:0-, C8:0-, C12:0-, C16:0- and C20:0-CoA respectively.

FACI-24 = molecular target: T3, FACI-24 (Bos taurus, UniProt P07107, M25C); assay: Fluorescence emission change of FACI-24 on titration with CoA and acyl-CoA esters; assay type: binding, bovine
T3 construct: made in house; host or cells: E. coli BL21(DE3)pLysS, pET3a vector
T3 sequence (P07107 2-87 M25C): T2 sequence (P07107 2-87 A54C) with M24C, C53A
Protocol: as §1, §2
The emission maximum of FACI-24 without ligand added was 510 nm and titration with CoA, C4:0-, C8:0-, C12:0-, […], C16:0- and C20:0-CoA caused 0, 16, 34, 42, 46 and 46 nm downshift in emission maximum, respectively (results not shown). C16:0-CoA induced a 5,5 fold increase in emission at 464 nm (FIG. 10).
Titration of FACI with acyl-CoAs was done using a SPEX FLOUROLOG (Industries Inc, Edison N.J., USA) with excitation at 387 nm and emission at 460 nm, with both excitation and emission slits set to 4.5 nm. FACI (0.5-4.5 uM, as indicated) was dissolved in 1.5 ml binding buffer (10 mM HEPES 150 mM NaCl, 5 mM KCl, 1 mM Na2HPO4, pH 7.4) and titrated with a 10 μM acyl-CoA dissolved in binding buffer, with or without FACI added, as indicated. Fluorescence emission values (counts per second) measured without FACI added to the ligand stock solution were corrected for titrand dilution.

FACI53 [3] = molecular target: T2, FACI53; assay: Isoelectrical focusing of acyl-CoA binding to FACI53; parameters: species or system bovine; details: ligand in four-fold molar excess over protein
Protocol: All the gels were prepared with ligands (1-7) in four-fold molar excess over protein. […] The protein-ligand complex shifted to a pl around 3.8. Legend: 1: Water, 2: CoA-SH, 3: C4-CoA, 4: C8-CoA, 5: C12-CoA, 6: C16-CoA, 7: C20-CoA, 8: Broad pl Calibration Kit (pH 3-10).
as §1, with “The concentration of acyl-CoA in the aqueous phase was determined from the fluorescence emission sensitivities at 495 and 470 nm repectively essentially by the method described by (Grynkiewickz et. al.,1985, J. Biol. Chem. 260, 3440-3450) according to which:” left out

CCCCCCCCCCCCCCCC(=O)SCCNC(=O)CCNC(=O)[C@H](O)C(C)(C)COP(=O)(O)OP(=O)(O)OC[C@H]1O[C@@H](n2cnc3c(N)ncnc32)[C@H](O)[C@@H]1OP(=O)(O)O [C16:0-CoA, palmitoyl-CoA]
Kd (native bovine ACBP): 2 nM | Binding to FACI53 by isothermal titration calorimetry (FACI53 [1]): binding was confirmed | Magnitude of emission of FACI-53, fold increase (FACI53 [2]): 1.3 fold | Fluorescence emission maximum of FACI-53 with ligand (FACI53 [2]; 525 nm when no ligand present, excitation 400 nm): 496 nm | Relative emission of FACI-53 at 495 nm, fold increase (FACI53 [2]; emission at 495 nm): 2.2 fold | Fold increase in emission of FACI-24 at 464 nm (FACI-24; emission at 464 nm): 5,5 fold | Downshift in emission maximum of FACI-24 (FACI-24; emission maximum without ligand 510 nm, excitation 400 nm): 46 nm | Binding to FACI53 by isoelectrical focusing (FACI53 [3]): shown to bind
